Measured values from patent publication US10407467B2, “Polymyxin derivatives and their use in combination therapy together with different antibiotics” (priority 2013, dated 2019).
Bridge positions count the residues as written; N and C are the ends. Square brackets hold non-standard residues; d marks the D form. Peptide text beside a SMILES is read from it. * marks the point of attachment. ξ: configuration not given here. ξβ3hGly(cHex) = NC(CC(=O)*)C1CCCCC1; Thr(3ξ) = CC(O)[C@H](N)C(=O)O; Dab = NCC[C@H](N)C(=O)O

Legend:
Assay in all cases: MIC, compound in combination with a second agent (broth microdilution)
Assay type in all cases: cell-based
Acinetobacter baumannii = system: Acinetobacter baumannii
Summary of the method: (§1)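 Equal-mass combos (compound in TFA or sulphate salt form plus second agent); direct colony suspension, 0.5 McFarland; duplicate wells; MIC expressed as summed concentration of both drugs.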

Escherichia coli = system: Escherichia coli
Summary of the method: as §1

Pseudomonas aeruginosa = system: Pseudomonas aeruginosa
Summary of the method: as §1

Klebsiella pneumoniae = system: Klebsiella pneumoniae
Summary of the method: as §1

[1] = 1:1 combination with Aztreonam, total drug concentration
[2] = 1:1 combination with Ciprofloxacin (by row order), total drug concentration
[3] = 1:1 combination with Ciprofloxacin, total drug concentration
[4] = 1:1 combination with Tigecycline, total drug concentration
[5] = 1:1 combination with Vancomycin, total drug concentration
[6] = Ratio of Compound to Rifampicin 1:1, total drug concentration
[7] = Ratio of Compound to Rifampicin 1:3, total drug concentration

Compound: CC(C)C[C@@H]1NC(=O)[C@@H](Cc2ccccc2)NC(=O)[C@H](CCN)NC(=O)[C@@H](NC(=O)[C@H](CCN)NC(=O)[C@@H](NC(=O)CC(N)C2CCCCC2)C(C)O)CCNC(=O)[C@H](C(C)O)NC(=O)[C@H](CCN)NC(=O)[C@H](CCN)NC1=O (stereo partly drawn) [Example 10, [3(R,S)-3-Amino-3-cyclohexane-propanoyl]Polymyxin B nonapeptide] ({ξβ3hGly(cHex)}-[Thr(3ξ)][Dab][Dab][Dab][dF]L[Dab][Dab][Thr(3ξ)]; lactam 3-C)
- MIC A. baumannii ATCC BAA-747 (Acinetobacter baumannii; 1:1 (wt:wt) combination with Rifampicin, MIC = total drug concentration, strain ATCC BAA-747): 0.25 micrograms/mL
- MIC A. baumannii CCUG57249 (Acinetobacter baumannii; 1:1 (wt:wt) combination with Rifampicin, MIC = total drug concentration, strain CCUG57249): 0.125 micrograms/mL
- MIC A. baumannii NCTC 13423 (Acinetobacter baumannii; 1:1 (wt:wt) combination with Rifampicin, MIC = total drug concentration, strain NCTC 13423): 0.125 micrograms/mL
- MIC A. baumannii NCTC 13424 (Acinetobacter baumannii; 1:1 (wt:wt) combination with Rifampicin, MIC = total drug concentration, strain NCTC 13424): 0.125 micrograms/mL
- MIC A. baumannii NCTC 13424 (Acinetobacter baumannii; [1]): 1 micrograms/mL
- MIC A. baumannii NCTC 13424 (Acinetobacter baumannii; [2]): 0.5 micrograms/mL
- MIC A. baumannii NCTC 13424 (Acinetobacter baumannii; A. baumannii NCTC 13424, 1:1 combination with Azithromycin, total drug concentration): 1 micrograms/mL
- MIC E. coli ATCC25922 (Escherichia coli; 1:1 (wt:wt) combination with Rifampicin, MIC = total drug concentration, strain ATCC25922): 0.125 micrograms/mL
- MIC E. coli NCTC9001 (Escherichia coli; 1:1 (wt:wt) combination with Rifampicin, MIC = total drug concentration, strain NCTC9001): 0.125 micrograms/mL
- MIC E. coli ATCC25922 (Escherichia coli; [1]): 0.125 micrograms/mL
- MIC E. coli NCTC 13441 (Escherichia coli; [1]): 2 micrograms/mL
- MIC E. coli ATCC25922 (Escherichia coli; [3]): ≤0.06 micrograms/mL
- MIC E. coli CCUG 59342 (Escherichia coli; [3]): 1 micrograms/mL
- MIC E. coli NCTC9001 (Escherichia coli; [3]): ≤0.06 micrograms/mL
- MIC E. coli NCTC9001 (Escherichia coli; [4]): 8 micrograms/mL
- MIC E. coli NCTC9001 (Escherichia coli; [5]): 16 microgram/mL
- MIC E. coli ATCC25922 (Escherichia coli; E. coli ATCC25922, 1:1 combination with Azithromycin, total drug concentration): 0.125 micrograms/mL
- MIC E. coli ATCC25922 (Escherichia coli; E. coli ATCC25922, 1:1 combination with Fusidic acid, total drug concentration): 1 micrograms/mL
- MIC E. coli ATCC25922 (Escherichia coli; E. coli ATCC25922, 1:1 combination with Novobiocin, total drug concentration): 0.5 micrograms/mL
- MIC E. coli ATCC25922 (Escherichia coli; E. coli ATCC25922, 1:1 combination with Oxacillin, total drug concentration): 8 micrograms/mL
- MIC E. coli NCTC9001 (Escherichia coli; E. coli NCTC9001, 1:1 combination with Meropenem, total drug concentration): 0.5 micrograms/mL
- MIC E. coli NCTC 13441 (Escherichia coli; E. coli NCTC 13441, 1:1 combination with Azithromycin, total drug concentration): 2 micrograms/mL
- MIC E. coli NCTC 13441 (Escherichia coli; E. coli NCTC 13441, 1:1 combination with Novobiocin, total drug concentration): 0.5 micrograms/mL
- MIC P. aeruginosa ATCC 27853 (Pseudomonas aeruginosa; 1:1 (wt:wt) combination with Rifampicin, MIC = total drug concentration, strain ATCC 27853): 1 micrograms/mL
- MIC P. aeruginosa ATCC-47 (Pseudomonas aeruginosa; 1:1 (wt:wt) combination with Rifampicin, MIC = total drug concentration, strain ATCC-47): 0.25 micrograms/mL
- MIC P. aeruginosa CCUG 59626 (Pseudomonas aeruginosa; 1:1 (wt:wt) combination with Rifampicin, MIC = total drug concentration, strain CCUG 59626): 0.25 micrograms/mL
- MIC P. aeruginosa ATCC 10145 (Pseudomonas aeruginosa; [1]): 1 micrograms/mL
- MIC P. aeruginosa ATCC 27853 (Pseudomonas aeruginosa; [2]): 0.125 micrograms/mL
- MIC P. aeruginosa CCUG 59626 (Pseudomonas aeruginosa; [2]): 0.5 micrograms/mL
- MIC P. aeruginosa CCUG 59626 (Pseudomonas aeruginosa; [4]): 1 micrograms/mL
- MIC P. aeruginosa ATCC 10145 (Pseudomonas aeruginosa; P. aeruginosa ATCC 10145, 1:1 combination with Azithromycin, total drug concentration): 1 micrograms/mL
- MIC P. aeruginosa ATCC 10145 (Pseudomonas aeruginosa; P. aeruginosa ATCC 10145, 1:1 combination with Novobiocin, total drug concentration): 0.5 micrograms/mL
- MIC K. pneumoniae ATCC 4352 (Klebsiella pneumoniae; 1:1 (wt:wt) combination with Rifampicin, MIC = total drug concentration, strain ATCC 4352): ≤0.06 micrograms/mL
- MIC K. pneumoniae ATCC-BAA-2146 (Klebsiella pneumoniae; 1:1 (wt:wt) combination with Rifampicin, MIC = total drug concentration, strain ATCC-BAA-2146): 0.5 micrograms/mL
- MIC K. pneumoniae CCUG-59348 (Klebsiella pneumoniae; 1:1 (wt:wt) combination with Rifampicin, MIC = total drug concentration, strain CCUG-59348): 1 micrograms/mL
- MIC K. pneumoniae NCTC 13438 (Klebsiella pneumoniae; 1:1 (wt:wt) combination with Rifampicin, MIC = total drug concentration, strain NCTC 13438): 0.5 micrograms/mL
- MIC K. pneumoniae ATCC 4352 (Klebsiella pneumoniae; [1]): ≤0.06 micrograms/mL
- MIC K. pneumoniae CCUG 59349 (Klebsiella pneumoniae; [1]): 4 micrograms/mL
- MIC K. pneumoniae ATCC 4352 (Klebsiella pneumoniae; [2]): ≤0.06 micrograms/mL
- MIC K. pneumoniae ATCC BAA-1706 (Klebsiella pneumoniae; [2]): 0.25 micrograms/mL
- MIC K. pneumoniae CCUG 59348 (Klebsiella pneumoniae; [3]): 32 micrograms/mL
- MIC K. pneumoniae NCTC 13442 (Klebsiella pneumoniae; [3]): 1 micrograms/mL
- MIC K. pneumoniae CCUG 59348 (Klebsiella pneumoniae; [4]): >32 micrograms/mL
- MIC K. pneumoniae NCTC 13442 (Klebsiella pneumoniae; [4]): 16 micrograms/mL
- MIC K. pneumoniae CCUG 59348 (Klebsiella pneumoniae; [5]): >32 microgram/mL
- MIC K. pneumoniae NCTC 13442 (Klebsiella pneumoniae; [5]): 4 microgram/mL
- MIC K. pneumoniae ATCC 4352 (Klebsiella pneumoniae; K. pneumoniae ATCC4352, 1:1 combination with Azithromycin, total drug concentration): 0.125 micrograms/mL
- MIC K. pneumoniae ATCC 4352 (Klebsiella pneumoniae; K. pneumoniae ATCC4352, 1:1 combination with Fusidic acid, total drug concentration): 0.5 micrograms/mL
- MIC K. pneumoniae ATCC 4352 (Klebsiella pneumoniae; K. pneumoniae ATCC4352, 1:1 combination with Novobiocin, total drug concentration): 0.125 micrograms/mL
- MIC K. pneumoniae ATCC BAA-1706 (Klebsiella pneumoniae; K. pneumoniae ATCC BAA-1706, 1:1 combination with Meropenem, total drug concentration): 4 micrograms/mL
- MIC K. pneumoniae CCUG 59348 (Klebsiella pneumoniae; K. pneumoniae CCUG 59348, 1:1 combination with Meropenem, total drug concentration): >32 micrograms/mL
- MIC K. pneumoniae CCUG 59349 (Klebsiella pneumoniae; K. pneumoniae CCUG 59349, 1:1 combination with Azithromycin, total drug concentration): 4 micrograms/mL
- MIC K. pneumoniae CCUG 59349 (Klebsiella pneumoniae; K. pneumoniae CCUG 59349, 1:1 combination with Novobiocin, total drug concentration): 1 micrograms/mL
- MIC K. pneumoniae NCTC 13442 (Klebsiella pneumoniae; K. pneumoniae NCTC 13442, 1:1 combination with Meropenem, total drug concentration): 16 micrograms/mL
- MIC K. pneumoniae ATCC-BAA-2146 (Klebsiella pneumoniae; [6]): 0.5 micrograms/mL
- MIC K. pneumoniae CCUG-59348 (Klebsiella pneumoniae; [6]): 1 micrograms/mL
- MIC K. pneumoniae NCTC 13438 (Klebsiella pneumoniae; [6]): 0.5 micrograms/mL
- MIC K. pneumoniae ATCC-BAA-2146 (Klebsiella pneumoniae; [7]): 0.5 micrograms/mL
- MIC K. pneumoniae CCUG-59348 (Klebsiella pneumoniae; [7]): 1 micrograms/mL
- MIC K. pneumoniae NCTC 13438 (Klebsiella pneumoniae; [7]): 0.5 micrograms/mL
